Source: BigSolDB 2.1

O=C(O)[C@@H]1CSCN1
solubility (mole fraction)
Conditions | in 1,4-dioxane | in acetone | in acetonitrile | in dichloromethane | in ethanol | in ethyl acetate | in isopropanol | in methanol | in water
283.15 K | – | 0.00018 | 2.2e-05 | 1.5e-05 | 9e-05 | 2.3e-05 | 3.7e-05 | 5.5e-05 | 0.00296
288.15 K | 0.00035 | – | – | 5.1e-05 | – | – | – | – | –
293.15 K | 0.000384 | 0.000298 | 3e-05 | 0.000134 | 0.000125 | 7.2e-05 | 6.8e-05 | 7.4e-05 | 0.00383
298.15 K | – | – | – | 0.000208 | – | – | – | – | –
303.15 K | 0.000477 | 0.000537 | 4.8e-05 | 0.000292 | 0.00018 | 0.000158 | 9.8e-05 | 0.000112 | 0.00502
313.15 K | 0.000589 | 0.00135 | 6.8e-05 | – | 0.000254 | 0.000297 | 0.000127 | 0.000209 | 0.0062
323.15 K | 0.000708 | 0.00343 | 9.1e-05 | – | 0.000348 | 0.000471 | 0.00019 | 0.000315 | 0.00773
